Experimental data: patent publication US12173088B2, “Anti-microbial peptides” (priority 2018, dated 2024)
Values after ≈ are worked out from the molar mass of the structure shown. Read-outs that look alike come from different tables or passages of the source.

Legend:
E. coli E423-17 = experiment: microbe, parasite or virus in culture; assay type: cell-based, Escherichia coli; conditions: Escherichia coli, E42317; Table 14; read-out: MIC E. coli E423-17
Outline: (§1)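 Broth microdilution: log-phase cultures in tryptic soy broth diluted to OD600 0.001, exposed to two-fold diluted peptides at 37° C overnight, growth read at 630 nm. Medium effects on S. aureus USA300 tested with up to 200 mM NaCl, 2 mM CaCl2, 5-10% human serum, mouse plasma, fluids or tissue homogenate supernatants.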

S. aureus USA300 [1] = experiment: microbe, parasite or virus in culture; assay type: cell-based, Staphylococcus aureus; conditions: Staphylococcus aureus, MRSA / USA300; Table 14; read-out: MIC S. aureus USA300 (MRSA)
Outline: as §1

A. baumannii B26-16 = experiment: microbe, parasite or virus in culture; assay type: cell-based, Acinetobacter baumannii; conditions: Acinetobacter baumannii, B2616; Table 14; read-out: MIC A. baumannii B26-16
Outline: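 Broth microdilution in tryptic soy broth: log-phase cultures diluted to 0.001 OD600 and exposed to peptide dilutions overnight at 37 °C, growth read at 630 nm. For S. aureus USA300, medium effects tested at pH 6.8, 7.2 and 8.0, with 150 mM NaCl, or with 5–10% human serum, mouse plasma or peritoneal fluid.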

E. faecium V286-17 (VRE) = experiment: microbe, parasite or virus in culture; assay type: cell-based, Enterococcus faecium; conditions: Enterococcus faecium, VRE, read-out: MIC E. faecium V286-17 (VRE)
Outline: as §1

P. aeruginosa E411-17 = experiment: microbe, parasite or virus in culture; assay type: cell-based, Pseudomonas aeruginosa; conditions: Pseudomonas aeruginosa, E41117; Table 14; read-out: MIC P. aeruginosa E411-17
Outline: as §1

K. pneumoniae E406-17 = experiment: microbe, parasite or virus in culture; assay type: cell-based, Klebsiella pneumoniae; conditions: Klebsiella pneumoniae, E40617; Table 14; read-out: MIC K. pneumoniae E406-17
Outline: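 Broth microdilution in tryptic soy broth: log-phase cultures (OD600 ≈0.5) diluted to OD600 0.001, given two-fold peptide dilutions, incubated overnight at 37° C. Growth read at 630 nm.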

[2] = test system: K. pneumoniae E406-17 biofilms; experiment: Biofilm disruption and attachment; assay type: cell-based, Klebsiella pneumoniae
Description: Briefly, S. aureus USA300 and K. pneumoniae E406-17 (10^5 CFU/mL) were prepared from exponentially phase. Each well of the microtiter plate (Corning Costar® Cat No. 3595) was aliquoted with 180 μL of inoculum and the plates were incubated at 37° C. for 48 hours to form biofilm. Culture treated with water served as a positive control while media without bacterial inoculation served as the negative control. Media was aspirated post incubation and the attached biofilms were washed with 1×PBS to remove the planktonic bacteria. Each well was aliquoted with 20 μL of 10× peptide solution and 180 μL of fresh TSB media, plates were further incubated at 37° C. for 24 hours. Media aspirated from the wells and washed with 1×PBS to remove planktonic cells. Live cells in the biofilms were quantitated using XTT [2,3-bis(2-methyloxy-4-nitro-5-sulfophenyl)-2H-tertazolium-5-carboxanilide] assay by following the manufacturer's instructions with modifications. 180 μL of fresh TSB and 20 μL of XTT solution was added to each well and the plates further incubated at 37° C. for 2 hours. Absorbance was read at 450 nm (only media with XTT containing wells served as the blank) using a Chromate® microtiter plate reader. Percentage biofilm growth for the peptide was plotted by assuming 100% biofilm growth in bacterial control alone. The data is mean±SD, the significance at […]. […]

S. aureus M838-17 (MRSA) = experiment: microbe, parasite or virus in culture; assay type: cell-based, Staphylococcus aureus; conditions: Staphylococcus aureus, MRSA; Table 7; by weight; read-out: MIC S. aureus M838-17 (MRSA)
Outline: as §1

[3] = test system: S. aureus USA300 biofilms; conditions: 48-hour biofilms
Description: The antibiofilm activity of the peptide against 24 hours established biofilms was evaluated. In short, S. aureus USA300 (10^5 CFU/mL) was made from exponential phase bacteria in TSB media and 200 μL was distributed to each well of the microtiter plate (Corning Costar Cat No. 3595). The plates were incubated at 37° C. for 24 hours to form biofilm. Culture treated with water served as a positive control while media without bacterial inoculation served as the negative control. Media was then pipetted out and the attached biofilms were washed with 1×PBS to remove the planktonic bacteria. Each well of the plate was then filled with 20 μL of 10× peptide solution and 180 μL of fresh TSB media and the plates were further incubated at 37° C. for 24 hours. Media was then pipetted out and the wells were washed with 1×PBS to remove planktonic cells. Live cells in the biofilms were then quantitated using XTT [2,3-bis(2-methyloxy-4-nitro-5-sulfophenyl)-2H-tertazolium-5-carboxanilide] assay by following the manufacturer's instructions with modifications. 180 μL of fresh TSB and 20 μL of XTT solution was added to each well and the plates were again incubated at 37° C. for 2 hours. Absorbance at 450 nm (only media with XTT containing wells served as the blank) was obtained using a ChroMate® microtiter plate reader. […]

S. aureus USA300 [4] = assay type: cell-based, Staphylococcus aureus
Description: The experiment was carried out similar to the MIC determination with a few modifications (Ge, et al. (1999) Antimicrob. Agents Chemother., 43:782-788; Ling, et al. (2015) Nature 520:388). In short, an exponential phase S. aureus USA300 culture (i.e., optical density at 600 nm≈0.5) was diluted and partitioned into a 96-well polystyrene microplate with ˜10^5 colony forming units (CFU) per well (90 μL aliquots). After treatment with 10 μL of peptide or antibiotics solutions at various concentrations, microplates were incubated at 37° C. overnight and read on a ChroMate® 4300 Microplate Reader at 630 nm (GMI). […] Plots were made to determine the increase in the fold change (MIC on given passage/MIC recorded in first day of passage).
This experiment was performed similar to the MIC determination with a few modifications. […] After treatment with 10 μL of peptide or antibiotics solutions at various concentrations, microplates were incubated at 37° C. overnight and read on a ChroMate® Microplate Reader at 630 nm (GMI). […] The increase in the fold change (MIC on given passage/MIC recorded in first day of passage) used to determine the degree of drug resistance.

[5] = test system: clinical strains of methicillin-resistant and susceptible S. aureus; experiment: microbe, parasite or virus in culture; conditions: for MIC: Staphylococcus aureus
Description: The antibacterial activity of peptides was evaluated using a standard broth microdilution protocol with minor modifications (Mishra, et al. (2017) Acta Biomater., 49:316-328). In brief, logarithmic phase bacterial cultures (i.e., optical density at 600 nm≈0.5) were diluted to 0.001 OD and aliquoted 90 μL per well into a 96-well polystyrene microplate. Added 10 μL peptides per well with various concentrations, plates were incubated at 37° C., overnight. Post incubation the plates are read at 630 nm using a ChroMate® Microplate Reader (GMI). […] To study the influence of medium conditions on the antimicrobial activity of peptides against S. aureus USA300 at different pHs (6.8, 7.2, and 8.0), 150 mM sodium chloride (NaCl), 5-10% of human serum, mouse plasma, and peritoneal fluid were included into the assays.

C[C@@H](O)[C@H]1C(=O)N2C(C(=O)O)=C(S[C@@H]3CN[C@H](CNS(N)(=O)=O)C3)[C@H](C)[C@H]12 [Doripenem, reference compound]
MIC (E. coli E423-17): 1 µM (≈ 0.421 µg/mL) | MIC (S. aureus USA300 [1]): 0.25 µM (≈ 0.105 µg/mL) | MIC (A. baumannii B26-16): > 8 µM | MIC (E. faecium V286-17 (VRE); Table 14): > 8 µM | MIC (P. aeruginosa E411-17): 2 µM (≈ 0.841 µg/mL) | MIC (K. pneumoniae E406-17): 0.5 µM (≈ 0.21 µg/mL) | Adhesion/attachment of K. pneumoniae [2]: showed no effect | Effect on 48-hour preformed biofilms ([2]; 48-hour biofilms): showed no effect

CCOc1ccc2ccccc2c1C(=O)N[C@@H]1C(=O)N2[C@@H]1SC(C)(C)[C@@H]2C(=O)O [Nafcillin]
MIC (S. aureus M838-17 (MRSA)): 0.78 to 1.56 µM (≈ 0.323 to 0.647 µg/mL) | MIC (E. faecium V286-17 (VRE); Table 7): > 12.5 µM | Activity against 48-hour biofilms [3]: did not | MIC increase (S. aureus USA300 [4]; after 16 passages, sub-MIC level): 1000 fold | Resistance development (S. aureus USA300 [4]; multiple passage experiment): developed resistance | MIC ([5]; MSSA, strain B243-16 MSSA): < 0.25 µM | MIC ([5]; MSSA, strain B254-16 MSSA): < 0.25 µM | MIC ([5]; MSSA, strain B255-16 MSSA): < 0.25 µM | MIC ([5]; MSSA, strain B262-16 MSSA): 0.5 µM (≈ 0.207 µg/mL) | MIC ([5]; MSSA, strain B269-16 MSSA): 0.5 µM (≈ 0.207 µg/mL) | MIC ([5]; NEWMAN, strain Newman): 0.25 µM (≈ 0.104 µg/mL) | MIC ([5]; USA200, strain USA200): > 8 µM | MIC ([5]; USA300, strain USA300): 0.5 µM (≈ 0.207 µg/mL) | MIC ([5]; USA400, strain USA400): 1 µM (≈ 0.414 µg/mL) | MIC ([5]; strain M106-16): 2 µM (≈ 0.829 µg/mL) | MIC ([5]; strain M108-16): 1 µM (≈ 0.414 µg/mL) | MIC ([5]; strain M109-16): 1 µM (≈ 0.414 µg/mL) | MIC ([5]; strain M111-16): 8 µM (≈ 3.32 µg/mL) | MIC ([5]; strain M112-16): 0.5 µM (≈ 0.207 µg/mL) | MIC ([5]; strain M113-16): 0.5 µM (≈ 0.207 µg/mL) | MIC ([5]; strain M114-16): 0.5 µM (≈ 0.207 µg/mL) | MIC ([5]; strain M116-16): < 0.25 µM | MIC ([5]; strain M117-16): 0.5 µM (≈ 0.207 µg/mL) | MIC ([5]; strain M118-16): 0.5 µM (≈ 0.207 µg/mL) | MIC ([5]; strain M119-16): 1 µM (≈ 0.414 µg/mL) | MIC ([5]; strain M120-16): 2 µM (≈ 0.829 µg/mL) | MIC ([5]; strain M121-16): 1 µM (≈ 0.414 µg/mL) | MIC ([5]; strain M122-16): 1 µM (≈ 0.414 µg/mL) | MIC ([5]; strain M123-16): 4 µM (≈ 1.66 µg/mL) | MIC ([5]; strain M126-16): 1 µM (≈ 0.414 µg/mL) | MIC ([5]; strain M127-16): 2 µM (≈ 0.829 µg/mL) | MIC ([5]; strain M128-16): 8 µM (≈ 3.32 µg/mL) | MIC ([5]; strain M129-16): 1 µM (≈ 0.414 µg/mL) | MIC ([5]; strain M130-16): 1 µM (≈ 0.414 µg/mL) | MIC ([5]; strain UAMS-1): 4 µM (≈ 1.66 µg/mL) | MIC ([5]; strain mu50): > 8 µM | Inhibition of Mu50 and USA200 strains ([5]; nafcillin at 8 μM): did not inhibit
